In patent publication US10575520B2, “Cyclohexylamine-based compounds and uses thereof” (BOARD OF SUPERVISORS OF LOUISIANA STATE UNIVERSITY AND …, priority 2016, dated 2020):
Where a name gives a salt, the structure may show the parent alone.

Columns and labels:
[1] = system: worker C. formosanus termites; experiment: Dose-response feeding assay (termite mortality on treated filter paper)
Text: Worker C. formosanus were collected from Brechtel Park, New Orleans, La. by methods known in the art. Bait crates (open-mesh plastic containers) filled with southern yellow pine or spruce-pine-fir sapwood were arranged into a lattice and buried near a C. formosanus infested tree and collected after 3 to 9 weeks. Termite-containing crates were held in 250-liter plastic garbage cans kept at room temperature (26-28 C) and 70-80% relative humidity with the original food source. Termites were collected from New Orleans on 13 Jun. 2006 (collection group A); 9 Aug. 2006 (collection group B); 1 Mar. 2008 (collection group C); 9 May 2008 (collection group D); 20 May 2008 (collection group E); 20 Mar. 2009 (collection group F); 29 May 2009 (collection group G) and 11 May 2010 (collection group H); 18 Aug. 2012 (collection group I); May 2014 (collection group J); August 2014 (collection group K). The termite collection procedure was tapping infested wood sticks into clean plastic containers where termites were collected on moistened paper towels.
(§1) 2-phospho-myo-inositol (dicyclohexylamine salt), glycerol-3-phosphate (dicyclohexylamine salt), dicyclohexylamine phosphate, monocyclohexylamine phosphate, and neat cyclohexylamine were screened for termiticide activity as follows: test compounds were applied to 42.5 mm×3 μm filter papers, in 60×15 mm plastic Petri dishes, in a solution of 1 mg of test compound per 10 μL of distilled water. Doses of 2.5 mg (160.2 μg/mm^3 of filter paper), 5 mg (320.4 μg/mm^3) 10 mg (640.8 μg/mm^3), and 20 mg (1281.7 μg/mm^3) of 2-phospho-myo-inositol were examined. Following filter paper treatment distilled water was added to bring the total volume applied to the filter papers to 300 μL, using 300 μL of distilled water as control. Cyclohexylamine was applied to the paper diluted in amounts of 300 μL, in concentrations ranging from 0.626 to 10.2 μg/mm^3. To prevent desiccation, approximately 50 μL of distilled water was applied to filter paper throughout the trials every third day, or upon observing that a filter paper disc was relatively dry. To test whether termite mortality was induced by consumption of the cyclohexylamine-treated paper, or whether vapor presence of cyclohexylamine was responsible for the toxicity, we compared addition of cyclohexylamine to both paper and fiberglass filters—the latter of which they will not consume. In addition to pure cyclohexylamine, dicyclohexylamine phosphate and monocyclohexylamine phosphate were tested for toxicity. Dicyclohexylamine phosphate was tested in concentrations ranging from 0.348 to 348 μg/mm^3, and monocyclohexylamine phosphate was tested in concentrations ranging from 2.28 to 228 μg/mm^3. Replicates of twenty worker termites were incubated in the dark in a parafilm-sealed Petri dish at room temperature for 2 weeks. Termite mortality was recorded daily in triplicate experiments. An analysis of variance (ANOVA) (SAS ANOVA procedure) followed by Tukey's Studentized range test was used to evaluate statistical differences among groups (Institute 1989). All mortality data were judged at a=0.05.
(§2) Termites from collection group B were used in the 2-Phospho-Myo-Inositol dose mortality assay. Termites from collection groups C and D were used in both the dicyclohexylamine-2-phophoinositol, and dicylclohexyalmine-glycerol-3-phosphate dose mortality assay. Termites from collection group I were used in cyclohexylamine dose mortality assays. Termites from collection […] in the dicyclohexylamine phosphate and neat cyclohexylamine volatility dose mortality assays. Termites from collection group K were used in the monocyclohexylamine phosphate dose mortality assay.

[2] = system: C. formosanus hindgut protozoan populations; experiment: Protozoan counting, total hindgut protozoa; type: in vivo, Coptotermes formosanus; conditions: 640.8 μg/mm^3, 14 day assay
Experimental: (§3) The effect of 2-phospho-myo-inositol dicyclohexylamine salt on C. formosanus hindgut protozoan populations was examined as follows: Ten mg of 2-phospho-myo-inositol were dissolved in 200 μL of distilled water and applied to filter paper, in a 60×15 mm plastic Petri dish, (640.8 μg/mm^3). Control filter paper received 200 μL of distilled water. With 75 worker termites per dish, collection group A were used. Pseudotrichonyrnpha grassii Koidzumi, Holornastigotoides hartmanni Koidzumi and Spirotrichonympha leidyi Koidzumi were counted daily for 2 week as described in Mannesmann, R., Z. Angew. Entomol. 72: 116-128 (1972); and modified by Maiastrello, L., et al., Pest Manag. Sci. 59: 58-68 (2002). Hindguts were removed from the posterior ends of three workers and gently macerated in 40 μL saline solution containing neutral red dye (0.5 mL of 1% aqueous neutral red solution dissolved in 10 mL saline solution). The number of each protozoan species was determined using a hemocytometer (Bright-line Improved Neubauer, Hausser Scientific, Horsham, Pa.) under a light microscope. The population of each protozoan species per hindgut (XF) was calculated as: XF=(G×n)/(V×3), where G=volume (μL) of solution hindguts dissected in; n=mean of two counts within hemocytometer; V=volume (μL) of area counted. Mean (±SE) XF values calculated from two replicates were used for graphical comparison of data. […]

[3] = system: Pseudotrichonyrnpha grassii Koidzumi; experiment: Protozoan counting, P. grassii; type: in vivo; conditions: 640.8 μg/mm^3, 14 day assay
Experimental: as §3

[4] = system: Holornastigotoides hartmanni Koidzumi; experiment: Protozoan counting, H. hartmanni; type: in vivo; conditions: 640.8 μg/mm^3, 14 day assay
Experimental: as §3

[5] = system: Spirotrichonympha leidyi Koidzumi; experiment: Protozoan counting, S. leidyi; type: in vivo; conditions: 640.8 μg/mm^3, 14 day assay
Experimental: as §3

[6] = system: worker termites (C. formosanus) antennae; experiment: Termite antenna ablative shortening (antenna length quantification); type: in vivo, Coptotermes formosanus; conditions: 640.8 μg/mm^3, 14 day assay
Experimental: Fifty worker termites, from collection group B, were placed in a 60×15 mm polystyrene petri dish with 42.5 mm filter paper treated with 10 mg of 2-phospho-myo-inositol (640.8 μg/mm^3). Daily for 14 day three randomly selected termites were removed, euthanized with 5 μL of ethanol and their antennae were photographed, after which, GSA image analyzer was used to quantify the length of the termite antennae (Bansemer and Scheel 2010). Antenna length data were subjected to ANOVA followed by Tukey's Studentized range test (Institute 1989). All data were judged at α=0.05. All experiments were performed in triplicate.

[7] = system: worker C. formosanus termites; experiment: Cyclohexylamine volatile effects (cellulose paper vs fiberglass filter mortality); conditions: 600 μg
Experimental: as §1, §2

[8] = system: worker C. formosanus termites; experiment: Cellulose (filter paper) consumption; type: in vivo, Coptotermes formosanus
Experimental: In dose mortality experiments where paper consumption data are shown, filter papers were weighed in ambient humidity prior to sugar application. After 14 days termites were removed from the dishes and the filter paper from each replicate was cleaned, washed of residual carbohydrate and dried at 100 C for 24 h. After drying and humidity equilibration for 24 h, filter papers were reweighed for determination of paper consumption. […] All consumption data were judged at a=0.05.

C1CCC(NC2CCCCC2)CC1.O=P(O)(O)O [Dicyclohexylamine Phosphate, Dicyclohexylamine phosphate]
day on which mortality became significantly higher ([1]; 0.348 μg/mm^3): three
mortality ([1]; 0.348 μg/mm^3, day 14): 28%
mortality versus control ([1]; 1.22 μg/mm^3): The two highest dosage groups, 4.90 and 9.80 μg/mm^3, displayed mortality significantly different than the control
mortality versus control ([1]; 2.45 μg/mm^3): The two highest dosage groups, 4.90 and 9.80 μg/mm^3, displayed mortality significantly different than the control
day on which mortality became significantly different ([1]; 4.90 μg/mm^3): three
mortality ([1]; 4.90 μg/mm^3, day 14): 38%
day on which mortality became significantly different ([1]; 9.8 μg/mm^3): four
mortality ([1]; 9.8 μg/mm^3, day 14): 36%
mortality versus control group ([1]; 17.22 μg/mm^3): significantly different than the control group
mortality versus control group ([1]; 34.44 μg/mm^3): significantly different than the control group
day on which mortality became significantly different ([1]; 68.88 μg/mm^3): five
mortality ([1]; 68.88 μg/mm^3, day 14): 45%
mortality ([1]; 348 μg/mm^3, first day): 100%

C1CCC(NC2CCCCC2)CC1.O=P(O)(O)OCC(O)CO [glycerol-3-phosphate (dicyclohexylamine salt)]
day on which mortality became significant ([1]; higher dosage group, 640.8 μg/mm^3): 5 days
mortality ([1]; higher dosage group, 640.8 μg/mm^3, day 12): 98%
day on which mortality became significant ([1]; lower dosage group, 320.4 μg/mm^3): 12 days
mortality ([1]; lower dosage group, 320.4 μg/mm^3, day 14): 71%

O=P(O)(O)OC1[C@@H](O)[C@H](O)C(O)[C@H](O)[C@H]1O (stereo partly shown) [2-Phospho-Myo-Inositol, 2-phospho-myo-inositol (di-cyclohexylamine salt)]
total protozoan populations versus control [2]: reduced total protozoan populations day four and thereafter
P. grassii populations versus control [3]: significantly lowered on day one, five, eight, nine, 10 and 11
H. hartmanni populations versus control [4]: significantly reduced on day one, two, five, eight, nine, 10, 11 and 14
S. leidyi populations versus control [5]: significantly lower than controls on day nine and 11
mortality versus control group ([1]; 160.2 μg/mm^3 filter paper, 14 day assay): did not result in mortality significantly different from the control group
mortality versus control group ([1]; 320.4 μg/mm^3 filter paper, 14 day assay): did not result in mortality significantly different from the control group
mortality versus control group ([1]; 640.8 μg/mm^3 filter paper, 14 day assay): did not result in mortality significantly different from the control group
day on which mortality became significant ([1]; 1281.7 μg/mm^3): eight
mortality ([1]; 1281.7 μg/mm^3, day 14): 98%
mortality ([1]; 1281.7 μg/mm^3, day eight): Forty three
termite antennae length versus control [6]: significantly reduced termite antennae of day five and six and eight through 14

NC1CCCCC1.O=P(O)(O)O [Monocyclohexylamine Phosphate, Monocyclohexylamine phosphate]
mortality versus control ([1]; 2.28 μg/mm^3): not significantly different from the control
mortality versus control ([1]; 22.8 μg/mm^3): not significantly different from the control
day on which mortality became significantly different ([1]; 228 μg/mm^3): 10 days
mortality ([1]; 228 μg/mm^3, day 10): 38%
mortality ([1]; 228 μg/mm^3, day 14): 100%

NC1CCCCC1 [Neat Cyclohexylamine, cyclohexylamine]
day on which mortality became significantly different ([7]; treatment of cellulose): eight
mortality ([7]; treatment of cellulose, day 14): 45%
mortality ([7]; treatment of cellulose, day eight): 25%
mortality versus corresponding control group ([7]; treatment of fiberglass): did not result in mortality significantly different than that of the corresponding control group
mortality versus control ([1]; 0.62 μg/mm^3): only the highest dosage group, 2.51 μg/mm^3, displayed significantly different mortality
mortality versus control ([1]; 0.82 μg/mm^3): only the highest dosage group, 2.51 μg/mm^3, displayed significantly different mortality
mortality versus control ([1]; 1.0 μg/mm^3 (lowest dosage of 1.0, 1.7, 2.4)): Only the two highest dosage groups displayed mortality significantly different from the control
mortality versus control ([1]; 1.25 μg/mm^3): only the highest dosage group, 2.51 μg/mm^3, displayed significantly different mortality
day on which mortality became significant ([1]; 1.7 μg/mm^3): eight
mortality ([1]; 1.7 μg/mm^3, day 14): 33%
day on which mortality became significant ([1]; 2.4 μg/mm^3): five
mortality ([1]; 2.4 μg/mm^3, day 14): 41%
day on which mortality became significantly different ([1]; 2.51 μg/mm^3): six
mortality ([1]; 2.51 μg/mm^3, day 14): 63%
mortality ([1]; 2.51 μg/mm^3, day six): 16%
mortality ([1]; 3.39 μg/mm^3, day three): 100%
mortality ([1]; 5.08 μg/mm^3, within one to three days): 100%
mortality ([1]; 10.2 μg/mm^3, day one): 100%
consumption rate per termite versus control ([8]; 0.626 μg/mm^3, 14 days): did not result in a consumption rate per termite significantly different from the control group
consumption rate (per surviving termites) versus control ([8]; 0.822 μg/mm^3, 14 days): significantly lower than the control group
consumption rate (per surviving termites) versus control ([8]; 1.253 μg/mm^3, 14 days): significantly lower than the control group
consumption rate (per surviving termites) versus control ([8]; 2.510 μg/mm^3, 14 days): significantly lower than the control group
